One experiment deals with T1, human O-GlcNAcase (Homo sapiens, UniProt O60502).
T1 sequence (O60502 1-916): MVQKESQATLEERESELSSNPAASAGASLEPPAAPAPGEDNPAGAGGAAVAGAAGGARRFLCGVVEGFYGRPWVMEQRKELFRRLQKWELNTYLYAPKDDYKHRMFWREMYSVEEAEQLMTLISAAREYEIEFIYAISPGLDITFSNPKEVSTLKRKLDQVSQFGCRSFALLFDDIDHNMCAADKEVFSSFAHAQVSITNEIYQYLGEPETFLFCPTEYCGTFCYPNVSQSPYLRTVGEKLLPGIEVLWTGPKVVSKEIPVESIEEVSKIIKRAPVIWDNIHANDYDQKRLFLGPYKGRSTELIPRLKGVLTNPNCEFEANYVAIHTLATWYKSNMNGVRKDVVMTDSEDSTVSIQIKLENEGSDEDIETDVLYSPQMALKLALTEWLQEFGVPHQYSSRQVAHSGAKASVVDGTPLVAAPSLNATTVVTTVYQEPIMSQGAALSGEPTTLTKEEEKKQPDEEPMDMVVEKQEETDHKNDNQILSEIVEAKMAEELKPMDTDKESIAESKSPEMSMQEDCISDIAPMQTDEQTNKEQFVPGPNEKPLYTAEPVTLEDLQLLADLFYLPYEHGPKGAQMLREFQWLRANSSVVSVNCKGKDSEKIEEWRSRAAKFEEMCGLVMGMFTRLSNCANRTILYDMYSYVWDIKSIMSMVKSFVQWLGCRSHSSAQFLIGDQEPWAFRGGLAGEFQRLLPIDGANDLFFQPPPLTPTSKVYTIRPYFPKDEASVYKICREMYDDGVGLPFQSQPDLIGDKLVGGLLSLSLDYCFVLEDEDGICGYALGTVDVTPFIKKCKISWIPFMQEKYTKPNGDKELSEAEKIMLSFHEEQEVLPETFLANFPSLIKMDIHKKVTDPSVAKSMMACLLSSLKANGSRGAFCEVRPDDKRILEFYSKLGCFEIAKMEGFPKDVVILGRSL
Description: Fluorescence-based assay for KI values for inhibition of O-GlcNAcase activity. The experiment is classed as biochemical. Particulars: purified human O-GlcNAcase, 4-methylumbelliferyl GlcNAc substrate, pH 7.0, Cheng-Prusoff; read-out: Fluorescence-based hOGA Ki. As for the experimental part:
Assay for Determination of KI Values for Inhibition of O-GlcNAcase Activity
Experimental Procedure for Kinetic Analyses:
Enzymatic reactions were carried out in a reaction containing 50 mM NaH2PO4, 100 mM NaCl and 0.1% BSA (pH 7.0) using 2 mM 4-Methylumbelliferyl N-acetyl-β-D-glucosaminide dihydrate (Sigma M2133) dissolved in ddH2O, as a substrate. The amount of purified human O-GlcNAcase enzyme used in the reaction was 0.7 nM. Test compound of varying concentrations was added to the enzyme prior to initiation of the reaction. The reaction was performed at room temperature in a 96-well plate and was initiated with the addition of substrate. The production of fluorescent product was measured every 60 sec for 45 min with a Tecan Infinite M200 plate-reader with excitation at 355 nm and emission detected at […], with 4-Methylumbelliferone (Sigma M1381) used to produce a standard curve. The slope of product production was determined for each concentration of compound tested and plotted, using standard curve fitting algorithms for sigmoidal dose response curves. The values for a four parameter logistic curve fit of the data were determined.
KI values were determined using the Cheng-Prusoff equation; the Km of O-GlcNAcase for substrate was 0.2 mM.

In experiment [1] the test system is O-GlcNAcase in rat PC-12 cells. In words: Cell-based ELISA of O-GlcNAcylated protein (RL-2 antibody). The conditions noted are these: 24 h treatment, O-GlcNAcylated protein level. The source says:
Assay for Determination of Cellular Activity for Compounds that Inhibit O-GlcNAcase Activity
Inhibition of O-GlcNAcase, which removes O-GlcNAc from cellular proteins, results in an increase in the level of O-GlcNAcylated protein in cells. An increase in O-GlcNAcylated protein can be measured by an antibody, such as RL-2, that binds to O-GlcNAcylated protein. The amount of O-GlcNAcylated protein:RL2 antibody interaction can be measured by enzyme linked immunosorbant assay (ELISA) procedures.
A variety of tissue culture cell lines, expressing endogenous levels of O-GlcNAcase, can be utilized; examples include rat PC-12, and human U-87, or SK—N—SH cells. […] If desired, the total protein concentration of samples is determined using 20 μL of the sample using the BCA method.
The ELISA portion of the assay is performed in a black Maxisorp 96-well plate that is coated overnight at 4° C. with 100 μL/well of the cell lysate (1:10 dilution of the lysate with PBS containing protease inhibitors, phosphatase inhibitors, and PMSF). […] The detection reaction is incubated for 15 minutes at room temperature and then read with excitation at 530 nm and emission at 590 nm.
The amount of O-GlcNAcylated protein, as detected by the ELISA assay, is plotted for each concentration of test compound using standard curve fitting algorithms for sigmoidal dose response curves. […]
Background: In an ELISA, binding on a coated surface is turned into a signal by an enzyme label.

The values that follow come from patent publication US9809537B2, “Glycosidase inhibitors and uses thereof” (Alectos Therapeutics Inc., priority 2012, dated 2017).

pEC50, pKi: −log10 of the molar value.

The pKi is the Ki on a negative log10 scale, so that one unit is a factor of ten. What is called pEC50 is the EC50 on a negative log10 scale, so that one unit is a factor of ten. High values mean a low EC50, low ones a high EC50. Turning to `CC(=O)NC[C@@H]1[C@@H](O)[C@H](O)[C@@H](CO)N1CCCc1ccc(-c2ccccc2)cc1` [Example 3, N-(((2R,3R,4R,5R)-1-(3-([1,1′-biphenyl]-4-yl)propyl)-3,4-dihydroxy-5-(hydroxymethyl)pyrrolidin-2-yl)methyl)acetamide], at human O-GlcNAcase, the pKi is 7.80. For the same molecule, in experiment [1], the pEC50 was 6.18.
